Assay results taken from EPA's ToxRefDB 2.

Assays:
[1] = tested on: dog; details: Chronic toxicity; beagle; Oral; Capsule; dose end: 12 month; group: systemic; systemic / in life observation / body weight / body weight + systemic / in life observation / clinical signs / emaciation + systemic / in …
[2] = tested on: mouse; details: Carcinogenicity; cd1; Oral; Feed; dose end: 78 week; group: systemic; systemic / in life observation / body weight / body weight + systemic / in life observation / body weight / body weight gain
[3] = tested on: rat; details: Neurotoxicity screening battery; other; Oral; Feed; dose end: 11 month; group: cannot be grouped; systemic / in life observation / body weight / body weight
[4] = tested on: rat; details: Prenatal developmental toxicity study, sprague dawley, Oral, Gavage/Intubation, dose end: 15 GD
[5] = tested on: hamster; details: Subchronic oral toxicity in rodents, golden syrian, Feed, dose end: 90 day, group: systemic
[6] = tested on: rat; details: Subchronic oral toxicity in rodents, sprague-dawley, Feed, dose end: 90 day, group: systemic, systemic / organ weight / liver / absolute + systemic / organ weight / liver / relative to body weight + systemic / pathology microscopic / …
[7] = tested on: rat; details: Multigenerational reproductive toxicity study, sprague dawley, Oral, Feed, dose end: 2 generation
[8] = tested on: rat; details: Combined chronic toxicity/carcinogenicity; sprague dawley; Oral; Feed; dose end: 2 year; group: systemic; systemic / clinical chemistry / cholesterol / cholesterol + systemic / in life observation / body weight / body weight + systemic / in life …
[9] = group: developmental, systemic / in life observation / body weight / fetal weight
[10] = group: maternal, systemic / in life observation / body weight / body weight gain + systemic / in life observation / clinical signs / ataxia + systemic / in …
[11] = systemic / in life observation / body weight / body weight + systemic / in life observation / food consumption / food consumption
[12] = systemic / in life observation / body weight / body weight + systemic / in life observation / food consumption / food consumption + systemic…
[13] = group: offspring, systemic / in life observation / body weight / offspring (pup) weight
[14] = group: parental, systemic / pathology gross / kidney / discolored + systemic / pathology microscopic / kidney / casts granular + systemic / pathology …

`CCN(CC)C(=O)c1cccc(C)c1` [DEET] showed an LEL [1] of 400 mg/kg/day, an LOAEL [1] of 400 mg/kg/day and an NEL [1] of 100 mg/kg/day. The NOAEL [1] was 100 mg/kg/day, the LEL [2] was 1000 mg/kg/day and the LOAEL [2] was 1000 mg/kg/day. The NEL [2] was 500 mg/kg/day, the NOAEL [2] was 500 mg/kg/day and the LEL [3] was 250 mg/kg/day. The LOAEL [3] was over 250 mg/kg/day, the NEL [3] was 100 mg/kg/day and the NOAEL [3] was at least 250 mg/kg/day. It also gave an LEL [4, 9] of 750 mg/kg/day, an LOAEL [4, 9] of 750 mg/kg/day and an NEL [4, 9] of 250 mg/kg/day. For the same compound, the NOAEL [4, 9] was 250 mg/kg/day, the LEL [4, 10] was 750 mg/kg/day and the LOAEL [4, 10] was 750 mg/kg/day. The NEL [4, 10] was 250 mg/kg/day, the NOAEL [4, 10] was 250 mg/kg/day and the LEL [5, 11] was 304 mg/kg/day. It also gave an LOAEL [5, 11] of 304 mg/kg/day, an NEL [5, 12] of 61 mg/kg/day and an NOAEL [5, 12] of 61 mg/kg/day. It also gave an LEL [6] of 100 mg/kg/day, an LOAEL [6] of 100 mg/kg/day and an NEL [6] of under 100 mg/kg/day. For the same compound, the NOAEL [6] was under 100 mg/kg/day, the LEL [7, 13] was 250 mg/kg/day and the LOAEL [7, 13] was over 250 mg/kg/day. The NEL [7, 13] was 100 mg/kg/day, the NOAEL [7, 13] was at least 250 mg/kg/day and the LEL [7, 14] was 25 mg/kg/day. For the same compound, the LOAEL [7, 14] was 25 mg/kg/day, the NEL [7, 14] was under 25 mg/kg/day and the NOAEL [7, 14] was under 25 mg/kg/day. The LEL [8] was 400 mg/kg/day, the LOAEL [8] was 400 mg/kg/day and the NEL [8] was 100 mg/kg/day. For the same compound, the NOAEL [8] was 100 mg/kg/day.
